Assay results reported in patent US11760784B2, “Compositions comprising PEDF-derived short peptides and uses thereof” (BRIM Biotechnology, Inc., priority 2016, dated 2023).
“Also recorded” adds a separate entry of the source.

Legend:
[1] = system: desiccating stress-induced dry eye; test: Tear production by phenol red thread test in CEC dry eye mice; assay type: in vivo, C57BL/6 mice; conditions: CEC 14 days
Protocol: Dry eye was induced by placing mice in a controlled environment chamber (CEC) as previously described (Barabino et al., 2005). Briefly, mice placed in the CEC were exposed to a relative humidity (RH)<25%, temperature of 20 to 22° C., and airflow of 15 L/min, 12 hours per day. Non-stressed (NS) mice without stress-induced dry eye were kept in a normal environment (RH >50%, no air flow, temperature of 21-23° C.) for the same duration. Corneal fluorescein staining and
Tear production was measured with phenol red-impregnated cotton threads (Zone-Quick; Oasis, Glendora, CA). The validity of this test in mice was performed as previously described (Dursun et al., 2002). The threads were held with jeweler forceps and placed in the lateral canthus for 60 seconds. The tear production is expressed in millimeters of thread that is wet by the tear and turned red.
To determine whether PDSP have therapeutic effects in a desiccating stress (DS)-induced ocular surface defects, mice were housed at controlled environment chamber (CEC) for 14 days to create ocular surface disruption. After 14 days in CEC, we used mice with fluorescence scores that are above 2 for the first experiments (FIG. 1A). […]

[2] = system: MMP-9 mRNA; test: MMP-9 mRNA by quantitative real-time PCR in NaCl-treated corneal epithelial cells; assay type: cell-based, rabbit
Protocol: Therefore, we also examined the effects of PDSP on the MMP-9 mRNA expression and activity in NaCl-treated rabbit corneal epithelial cells. Briefly, rabbit corneal epithelial cells were treated as described above. […] Hyperosmotic stress induced a substantial (about 2-fold) increase in MMP-9 mRNA level (Negative control peptide, ConP, followed by NaCl treatment). […] The increases in MMP-9 mRNA levels substantially correlate with the expression of the MMP-9 protein as measured with SDS-gel and enzymatic activities, as shown in FIG. 7(B).
The total RNA was extracted from cells using TRIzol (Invitrogen) and treated with RNase free DNase I (Qiagen, Santa Clarita, CA) to remove genomic DNA and then purified with an RNA purification kit (Dynabeads; Invitrogen). Synthesis of cDNA was performed by Superscript III (Invitrogen). Quantitative real-time PCR was performed in a GeneAmp 7700 sequence detection system (Applied Biosystems, Foster City, CA). […] All determinations were measured in triplicate. The cycle threshold (Ct) values corresponded to the PCR cycle number at which fluorescence emission in real time reaches a threshold above the base-line emission were analyzed using GeneAmp 7700 SDS software. The Ct value of the PCR product of interest and a control mRNA (GAPDH) were then used to calculate relative quantities of mRNA between samples. […]

[3] = system: intracellular ROS in rabbit corneal epithelial cells; test: Intracellular ROS (H2DCFDA probe) in NaCl-treated corneal epithelial cells; assay type: cell-based
Protocol: We therefore examined the effects of PDSP on the intracellular ROS and GSH levels in NaCl-treated (HOP) rabbit corneal epithelial cells. Briefly, rabbit corneal epithelial cells were pretreated with 10 μM PDSP or a negative control peptide (ConP) for 20 hours, followed by treatment with NaCl to induce hyperosmotic stress. After NaCl treatment for another 24 hours, cells were assessed for ROS using a 2′,7′-dichlorodihydrofluorescein diacetate (H2DCFDA) probe, which is an ROS indicator dye. […]
Intracellular ROS generation was assayed using 2′,7′-dichlorodihydrofluorescein diacetate (H2DCFDA; Molecular Probes, Eugene, Oreg.) which, when oxidized by ROS, releases the green fluorescent compound 2′,7′-dichlorofluorescein (DCF). […] Fluorescence (excitation, 488 nm; emission, 520 nm) was measured with a Spectra MAX GEMINI Reader (Molecular Devices, Sunnyvale, Calif., USA). The background fluorescence from control wells without the addition of H2DCFDA was subtracted from the experimental readings.
To investigate the effect of hyperosmotic stress on the intracellular ROS formation, rabbit corneal epithelial cells were cultured in a hyperosmotic medium (463 mOsM) by adding 90 mM NaCl for 24 hours. The intracellular ROS levels were detected by H2DCFDA probe and measured the formation of DCF-fluorescence by spectrofluorometer.

With “PDSP: 29mer, residues 93-121 of human PEDF: SLGAEQRTESIIHRALYYDLISSPDIHGT (SEQ ID NO:4) (listed as Homo sapiens)” the “tear production (cotton thread test)” value ([1]; then PDSP for 5 days, vehicle 4.5±0.2, day 0 3.8±0.5, non-stressed 5.4±0.4) was 5±0.3 mm, the “tear production (phenol red thread), human vs mouse PDSP” value ([1]; then peptide for 3 days (FIG. 12), listed as human PDSP) was “capable of restore; also recorded: improved tear productions to the same extent” and the “MMP-9 mRNA levels without hyperosmotic stress (peptide alone)” value ([2]; PDSP alone, isotonic medium) was “did not have effect”. The “repression of MMP-9 mRNA expression” value ([2]; PDSP pretreatment 20 hours, then hyperosmotic medium (463 mOsM) 24 hours) was 2 fold, the “DCF fluorescence without HOP (peptide alone)” value ([3]; 10 μM PDSP, isotonic medium, compared to untreated) was “did not increase DCF fluorescence” and the “suppression of DCF-fluorescence level compared to cells treated with NaCl alone” value ([3]; 10 μM peptide pretreatment 20 hours, then hyperosmotic medium (463 mOsM, 90 mM NaCl) 24 hours) was 1.3 fold.
